Laboratory results reported in patent EP0233461B2, “4,5,6-Substituted-2-pyrimidinamines” (AMERICAN CYANAMID COMPANY, priority 1986, dated 1987).
Counter-ions that a name gives are not always drawn.

tested on: human basophils; assay: Inhibition of histamine release from immunologically stimulated human basophils; format: cell-based; settings: Homo sapiens, concentration causing 50% inhibition of histamine release, by linear regression; active if IC50 ≦ 48 µM
Procedure, shortened: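 Leukocytes from sedimented human blood, washed in Tris-A and resuspended in Tris-ACM, were challenged with anti-IgE or antigen, with or without compound, for 60 min at 37 °C. Released histamine was measured fluorometrically after OPT derivatization and expressed as percent of total (perchloric acid lysate), corrected for spontaneous release.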

Compound Cc1cc(C)cc(Nc2nccc(-c3cccnc3)n2)c1 [N-(3,5-Dimethylphenyl)-4-(3-pyridinyl)-2-pyrimidinamine, sulfate] has an IC50 of 3000 nM.

same assay, conditions: Homo sapiens, concentration causing 50% inhibition of histamine release, by linear regression; active if IC50 ≦ 48 µM; read-out: IC50

Compared with CC(=O)N(C)c1ccc(Nc2nccc(-c3ccncc3)n2)cc1 [N-Methyl-N-[4-[[4-(4-pyridinyl)-2-pyrimidinyl]amino]phenyl]acetamide], CC(=O)N(C)c1ccc(Nc2nccc(-c3cccnc3)n2)cc1 [N-Methyl-N-[4-[[4-(3-pyridinyl)-2-pyrimidinyl]amino]phenyl]acetamide] is 11-fold higher in IC50: 100 nM for the first, 1100 nM for the second.

First: COc1cccc(Nc2nccc(-c3ccncc3)n2)c1 [N-(3-Methoxyphenyl)-4-(4-pyridinyl)-2-pyrimidinamine]
Second: CCc1cccc(Nc2nccc(-c3ccncc3)n2)c1 [N-(3-Ethylphenyl)-4-(4-pyridinyl)-2-pyrimidinamine]
The IC50 of the first is 26-fold lower: 400 nM for the first, 10600 nM for the second.

First: Cc1ccc(CNc2nccc(-c3ccccn3)n2)cc1C [N-[(3,4-Dimethylphenyl)methyl]-4-(2-pyridinyl)-2-pyrimidinamine]
Second: Nc1cccc(Nc2nccc(-c3ccccn3)n2)c1 [N-[4-(2-Pyridinyl)-2-pyrimidinyl]-1,3-benzenediamine]
The IC50 of the first is 200-fold higher: 39800 nM for the first, 200 nM for the second.

Going from CCc1ccc(Nc2nccc(-c3cnccn3)n2)cc1 [N-(4-Ethylphenyl)-4-pyrazinyl-2-pyrimidinamine] to CCc1ccc(Nc2nccc(-c3ccc(C)s3)n2)cc1 [N-(4-Ethylphenyl)-4-(5-methyl-2-thienyl)-2-pyrimidinamine], the IC50 rises from 2800 nM to 36300 nM (13-fold). The first is the more potent here.

CCN(CC)c1ccc(Nc2nccc(-c3cc4ccccc4o3)n2)cc1 [N'-[4-(2-Benzofuranyl)-2-pyrimidinyl]-N,N-diethyl-1,4-benzenediamine] and CN(C)c1ccc(Nc2nccc(-c3cc4ccccc4o3)n2)cc1 [N'-[4-(2-Benzofuranyl)-2-pyrimidinyl]-N,N-dimethyl-1,4-benzenediamine] are within 1.5-fold of each other in IC50: 6200 nM for the first, 5600 nM for the second.

COc1ccc(Nc2nccc(-c3ccco3)n2)cc1 [4-(2-Furanyl)-N-(4-methoxyphenyl)-2-pyrimidinamine] and CC(=O)Nc1ccc(Nc2nccc(-c3ccco3)n2)cc1 [N-[4-[[4-(2-Furanyl)-2-pyrimidin-yl]amino]phenyl]acetamide] cannot be ordered by IC50: less than 48000 nM for the first, 700 nM for the second.

Going from COC(=O)c1ccc(Nc2nccc(-c3ccncc3)n2)cc1 [4-[[4-(4-Pyridinyl)-2-pyrimidinyl]amino]benzoic acid, methyl ester] to CC(=O)Nc1ccc(Nc2nccc(-c3ccncc3)n2)cc1 [N-[4-[[4-(4-Pyridinyl)-2-pyrimidinyl]amino]-phenyl]acetamide], the IC50 falls from 27500 nM to 5300 nM (5.2-fold).

CN1CCN(c2ccc(Nc3nccc(-c4ccco4)n3)cc2)CC1 [4-(2-Furanyl)-N-[4-(4-methyl-1-piperazinyl)phenyl]-2-pyrimidin-amine] and CN1CCN(c2ccc(Nc3nccc(-c4ccccn4)n3)cc2)CC1 [N-[4-(4-Methyl-1-piperazinyl)phenyl]-4-(2-pyridinyl)-2-pyrimidinamine] cannot be ordered by IC50: 1800 nM for the first, less than 24000 nM for the second.

Going from Cc1cccc(Nc2nccc(-c3ccncc3)n2)c1C [N-(2,3-Dimethylphenyl)-4-(4-pyridinyl)-2-pyrimidinamine] to Nc1ccc(Nc2nccc(-c3ccncc3)n2)cc1 [N-[4-(4-Pyridinyl)-2-pyrimidinyl]-1,4-benzenediamine, hydrochloride], the IC50 falls from 20200 nM to 3000 nM (6.7-fold). The second is the more potent here.

Compared with c1cc(-c2ccnc(Nc3ccc(-n4ccnc4)cc3)n2)ccn1 [N-[4-(1H-Imidazol-1-yl)phenyl]-4-(4-pyridinyl)-2-pyrimidinamine], CN(C)CCOc1ccc(Nc2nccc(-c3ccncc3)n2)cc1 [N-[4-[2-(Dimethylamino)ethoxy]phenyl]-4-(4-pyridinyl)-2-pyrimidinamine] is 8.2-fold lower in IC50: 12300 nM for the first, 1500 nM for the second.

Fc1ccc(Nc2nccc(-c3cccnc3)n2)cc1 [N-(4-Fluorophenyl)-4-(3-pyridinyl)-2-pyrimidinamine] and CC(O)c1ccc(Nc2nccc(-c3cccnc3)n2)cc1 (stereo not drawn) [α-Methyl-4-[[4-(3-pyridinyl)-2-pyrimidinyl]amino]benzenemethanol] cannot be ordered by IC50: less than 48000 nM for the first, 4500 nM for the second.

Compared with CCOC(=O)c1cccc(Nc2nccc(-c3cccnc3)n2)c1 [3-[[4-(3-Pyridinyl)-2-pyrimidinyl]amino]benzoic acid, ethyl ester], Nc1cccc(Nc2nccc(-c3cccnc3)n2)c1 [N-[4-(3-Pyridinyl)-2-pyrimidinyl]-1,3-benzenediamine, dihydrochloride] is 51-fold lower in IC50: 20300 nM for the first, 400 nM for the second. The second is the more potent here.

Going from Cc1cnc(Nc2ccccc2)nc1-c1ccco1 [4-(2-Furanyl)-5-methyl-N-phenyl-2-pyrimidinamine] to c1ccc(Nc2nccc(-c3c[nH]c4ccccc34)n2)cc1 [4-(1H-Indol-3-yl)-N-phenyl-2-pyrimidinamine], the IC50 falls from 17700 nM to 3000 nM (5.9-fold). The second is the more potent here.

CCc1ccc(Nc2nccc(-c3ccnc4ccccc34)n2)cc1 [N-(4-Ethylphenyl)-4-(4-quinolinyl)-2-pyrimidinamine] and c1ccc(Nc2nccc(-c3ccnc4ccccc34)n2)cc1 [N-Phenyl-4-(4-quinolinyl)-2-pyrimi-dinamine] are within 1.5-fold of each other in IC50: 4000 nM for the first, 3000 nM for the second.

Cc1ccsc1-c1ccnc(Nc2ccc(N(C)C)cc2)n1 [N,N-Dimethyl-N'-[4-(3-methyl-2-thienyl)-2-pyrimidinyl]-1,4-benzenediamine] and CN(C)c1cccc(Nc2nccc(-c3cccnc3)n2)c1 [N,N-Dimethyl-N'-[4-(3-pyridinyl)-2-pyrimidinyl]-1,3-benzenediamine] are within 1.5-fold of each other in IC50: 1800 nM for the first, 1700 nM for the second.

CCc1ccc(Nc2nccc(-c3cccn3C)n2)cc1 [N-(4-Ethylphenyl)-4-(1-methyl-1H-pyrrol-2-yl)-2-pyrimidinamine] and CCN(CC)CCOc1ccc(Nc2nccc(-c3ccncc3)n2)cc1 [N-[4-[2-(Diethylamino)ethoxy]phenyl]-4-(4-pyridinyl)-2-pyrimidinamine] cannot be ordered by IC50: less than 48000 nM for the first, 200 nM for the second.

Cc1cc(C)cc(Nc2nccc(-c3cc(C)oc3C)n2)c1 [4-(2,5-Dimethyl-3-furanyl)-N-(3,5-dimethylphenyl)-2-pyrimidinamine] and Cc1cc(C)cc(Nc2nccc(-c3cccs3)n2)c1 [N-(3,5-Dimethylphenyl)-4-(2-thienyl)-2-pyrimidinamine] are within 1.5-fold of each other in IC50: 4100 nM for the first, 4300 nM for the second.

First: FC(F)(F)c1cccc(Nc2nccc(-c3ccncc3)n2)c1 [4-(4-Pyridinyl)-N-[3-(trifluoro-methyl)phenyl]-2-pyrimidinamine]
Second: FC(F)(F)c1cccc(Nc2nccc(-c3cccnc3)n2)c1 [4-(3-Pyridinyl)-N-[3-(trifluoromethyl)phenyl]-2-pyrimidinamine, hydrochloride]
The IC50 of the first is 46-fold higher: 32000 nM for the first, 700 nM for the second. The second is the more potent here.

Compound CC(N)c1cccc(Nc2nccc(-c3cccnc3)n2)c1 (stereo not drawn) [N-[3-(1-Aminoethyl)phenyl)-4-(3-pyridinyl)-2-pyrimidinanine, trihydrochloride] has an IC50 of 5100 nM.

same assay, conditions: concentration causing 50% inhibition of histamine release, by linear regression; active if IC50 ≦ 48 µM; phosphate; read-out: IC50

For c1ccc(Nc2nccc(-c3cccnc3)n2)cc1 [N-Phenyl-4-(3-pyridinyl)-2-pyrimidinamine, phosphate], the IC50 was 2700 nM.

same assay, conditions: concentration causing 50% inhibition of histamine release, by linear regression; active if IC50 ≦ 48 µM; read-out: IC50

In order of rising IC50:
1. c1ccc(Nc2nccc(-c3ccncc3)n2)cc1 [N-Phenyl-4-(4-pyridinyl)-2-pyrimidinamine]  900 nM
2. CN(C)c1ccc(Nc2nccc(-c3ccccn3)n2)cc1 [N-[4-(Dimethylamino)phenyl]-4-(2-pyridinyl)-2-pyrimidinamine]  2700 nM

same assay, conditions: concentration causing 50% inhibition of histamine release, by linear regression; active if IC50 ≦ 48 µM; sulfate

FC(F)(F)c1cccc(Nc2nccc(-c3cccnc3)n2)c1 [4-(3-Pyridinyl)-N-[3-(trifluoromethyl)phenyl]-2-pyrimidinamine, sulfate] showed an IC50 of 2600 nM.
